Laboratory results as given in PubChem BioAssay AID330 (DTP/NCI, 2004).
Where “and” joins values, the source holds several entries; their conditions need not be identical. Equal values may be shown once. Inconclusive results and toxic doses are left out. Rule for the calls: active = survival T/C of 150% or more; inactive = T/C below 125% in these data.

Test system: P388 leukemia ip, CD2F1 mice, survival T/C
Test: NCI In Vivo Anticancer Drug Screen. Data for tumor model P388 Leukemia (intraperitoneal) in CD2F1 (CDF1) mice
Details: endpoint: median survival time, higher = longer survival
In short: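 Mice carrying the transplanted tumor received test compound or vehicle. Survival was recorded in each group, and the value is the treated-group measurement divided by that of the vehicle-treated control group.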

[1] = dose: 60.0 mg/kg/injection, schedule: Q01DX005 (ip), vehicle: Klucel (hydroxypropylcellulose) (HPC)
[2] = dose: 120.0 mg/kg/injection, schedule: Q01DX005 (ip), vehicle: Klucel (hydroxypropylcellulose) (HPC)
[3] = dose: 240.0 mg/kg/injection, schedule: Q01DX005 (ip), vehicle: Klucel (hydroxypropylcellulose) (HPC)
[4] = dose: 50.0 mg/kg/injection, schedule: Q01DX009 (ip), vehicle: Klucel (hydroxypropylcellulose) (HPC)
[5] = dose: 100.0 mg/kg/injection, schedule: Q01DX001 (ip), vehicle: saline with Tween-80
[6] = dose: 200.0 mg/kg/injection, schedule: Q01DX001 (ip), vehicle: saline with Tween-80
[7] = dose: 400.0 mg/kg/injection, schedule: Q01DX001 (ip), vehicle: saline with Tween-80
[8] = dose: 60.0 mg/kg/injection, schedule: Q01DX005 (ip), vehicle: saline with Tween-80
[9] = dose: 120.0 mg/kg/injection, schedule: Q01DX005 (ip), vehicle: saline with Tween-80
[10] = dose: 50.0 mg/kg/injection, schedule: Q01DX005 (ip), vehicle: Klucel (hydroxypropylcellulose) (HPC)
[11] = dose: 100.0 mg/kg/injection, schedule: Q01DX005 (ip), vehicle: Klucel (hydroxypropylcellulose) (HPC)
[12] = dose: 100.0 mg/kg/injection, schedule: Q04DX003 (ip), vehicle: Klucel (hydroxypropylcellulose) (HPC)
[13] = dose: 200.0 mg/kg/injection, schedule: Q04DX003 (ip), vehicle: Klucel (hydroxypropylcellulose) (HPC)
[14] = dose: 400.0 mg/kg/injection, schedule: Q04DX003 (ip), vehicle: Klucel (hydroxypropylcellulose) (HPC)
[15] = dose: 50.0 mg/kg/injection, schedule: Q01DX009 (ip), vehicle: saline with Tween-80
[16] = dose: 100.0 mg/kg/injection, schedule: Q01DX009 (ip), vehicle: saline with Tween-80
[17] = dose: 200.0 mg/kg/injection, schedule: Q01DX009 (ip), vehicle: saline with Tween-80
[18] = dose: 25.0 mg/kg/injection, schedule: Q01DX005 (ip), vehicle: saline with Tween-80
[19] = dose: 50.0 mg/kg/injection, schedule: Q01DX005 (ip), vehicle: saline with Tween-80
[20] = dose: 100.0 mg/kg/injection, schedule: Q01DX005 (ip), vehicle: saline with Tween-80
[21] = dose: 200.0 mg/kg/injection, schedule: Q01DX005 (ip), vehicle: saline with Tween-80
[22] = dose: 12.5 mg/kg/injection, schedule: Q01DX009 (ip), vehicle: saline with Tween-80
[23] = dose: 25.0 mg/kg/injection, schedule: Q01DX009 (ip), vehicle: saline with Tween-80

Measured: T/C

O=C(NC1COB(c2ccccc2)OC1c1ccc([N+](=O)[O-])cc1)C(Cl)Cl (centres undefined)
inactive: [1] 97 % of control | [2] 97 % of control | [3] 99 % of control

CC(C)CSc1nc2ccc(NC(=O)/C=C/C(=O)O)cc2s1
inactive: [4] 95 % of control | dose: 100.0 mg/kg/injection, schedule: Q01DX009 (ip), vehicle: Klucel (hydroxypropylcellulose) (HPC) 95 % of control

COC(=O)Cn1/c(=N\N=C(/C)c2ccc(OC)cc2)sc2ccccc21
inactive: [5] 101 % of control | [6] 117 % of control | [7] 92 % of control

C[N+](C)(C)C1(Cc2ccccc2)c2ccccc2-c2ccc(Cl)cc21 (centres undefined)
inactive: dose: 12.5 mg/kg/injection, schedule: Q01DX009 (ip), vehicle: Klucel (hydroxypropylcellulose) (HPC) 107 % of control | dose: 25.0 mg/kg/injection, schedule: Q01DX009 (ip), vehicle: Klucel (hydroxypropylcellulose) (HPC) 105 % of control | [4] 108 % of control and 94 % of control

Nc1nc(N2CCCCC2)c2nc(Cl)n(C3OC(CO)C(O)C3O)c2n1 (centres undefined)
inactive: [8] 92 % of control | [9] 101 % of control | dose: 240.0 mg/kg/injection, schedule: Q01DX005 (ip), vehicle: saline with Tween-80 100 % of control

CN1C2=NCCN2S(=O)(=O)c2ccccc21
inactive: [5] 101 % of control | [6] 110 % of control | [7] 92 % of control

CC1CCC(C(C)C)C(NC(=O)c2cc[n+](C)cc2)C1 (centres undefined)
inactive: [10] 100 % of control | [11] 108 % of control

FC(F)(F)C1(C(F)(F)F)OS2(OC(C(F)(F)F)(C(F)(F)F)c3ccccc32)c2ccccc21
inactive: [12] 91 % of control | [13] 91 % of control | [14] 92 % of control

COc1ccc(CC(=O)Cc2ccc(OC)c(OC)c2)cc1OC
inactive: [15] 101 % of control | [16] 111 % of control | [17] 95 % of control | dose: 400.0 mg/kg/injection, schedule: Q01DX009 (ip), vehicle: saline with Tween-80 99 % of control | dose: 600.0 mg/kg/injection, schedule: Q01DX009 (ip), vehicle: saline with Tween-80 87 % of control

Cc1c[nH]c2nc(C)n(-c3ccccc3)c(=N)c12
inactive: dose: 12.5 mg/kg/injection, schedule: Q01DX005 (ip), vehicle: Klucel (hydroxypropylcellulose) (HPC) 100 % of control | dose: 25.0 mg/kg/injection, schedule: Q01DX005 (ip), vehicle: Klucel (hydroxypropylcellulose) (HPC) 93 % of control | [10] 101 % of control and 96 % of control

CCCCCCCCCCCCC1=NCC[N+]1(CCO)CC(O)COc1cc(Cl)c(Cl)cc1Cl (centres undefined)
inactive: dose: 12.5 mg/kg/injection, schedule: Q01DX009 (ip), vehicle: saline 105 % of control | dose: 25.0 mg/kg/injection, schedule: Q01DX009 (ip), vehicle: saline 105 % of control | dose: 50.0 mg/kg/injection, schedule: Q01DX009 (ip), vehicle: saline 102 % of control and 95 % of control | dose: 100.0 mg/kg/injection, schedule: Q01DX009 (ip), vehicle: saline 90 % of control

Cc1nc(N)nc2c1CCC(O)S2 (centres undefined)
inactive: dose: 50.0 mg/kg/injection, schedule: Q01DX005 (ip), vehicle: saline 98 % of control | dose: 100.0 mg/kg/injection, schedule: Q01DX005 (ip), vehicle: saline 102 % of control | dose: 200.0 mg/kg/injection, schedule: Q01DX005 (ip), vehicle: saline 96 % of control

Cc1cc(=O)[nH]c2c(C)c(N)ccc12
inactive: [18] 95 % of control | [19] 104 % of control | [20] 95 % of control

CCCCCC(=O)C(C)C1(C(=O)OC)NC(=S)NC(=O)C1C#N (centres undefined)
inactive: [1] 105 % of control | [2] 98 % of control | [3] 97 % of control

C=CCSc1ncnc2nc[nH]c12
inactive: [15] 100 % of control | [16] 109 % of control | dose: 100.0 mg/kg/injection, schedule: Q04DX003 (ip), vehicle: saline with Tween-80 104 % of control | dose: 200.0 mg/kg/injection, schedule: Q04DX003 (ip), vehicle: saline with Tween-80 104 % of control

CCN(CCO)CC(O)Cn1cnc2ncnc(N)c21 (centres undefined) (tested in a mixture with another compound)
inactive: [1] 97 % of control | [2] 94 % of control | [3] 95 % of control

CC(=O)Oc1ccccc1C(=O)O
inactive: dose: 31.3 mg/kg/injection, schedule: Q01DX009 (ip), vehicle: saline with Tween-80 90 % of control | [15] 99 % of control | dose: 62.5 mg/kg/injection, schedule: Q01DX009 (ip), vehicle: saline with Tween-80 100 % of control | [16] 107 % of control | dose: 125.0 mg/kg/injection, schedule: Q01DX009 (ip), vehicle: saline with Tween-80 104 % of control | [17] 95 % of control

COc1ccc(S(=O)(=O)N/N=C\c2cccc([N+](=O)[O-])c2O)cc1OC
inactive: [19] 102 % of control | [20] 99 % of control | [21] 101 % of control

CNC(=S)NCOCCOC(C)=O
inactive: dose: 60.0 mg/kg/injection, schedule: Q01DX005 (ip), vehicle: saline 98 % of control | dose: 120.0 mg/kg/injection, schedule: Q01DX005 (ip), vehicle: saline 102 % of control | dose: 240.0 mg/kg/injection, schedule: Q01DX005 (ip), vehicle: saline 102 % of control

CN(C)c1nc(N(C)C)nc(N(C)C)n1
inactive: dose: 6.25 mg/kg/injection, schedule: Q01DX009 (ip), vehicle: saline with Tween-80 110 % of control | [22] 105 % of control and 108 % of control and 96 % of control | dose: 20.0 mg/kg/injection, schedule: Q01DX009 (ip), vehicle: saline with Tween-80 108 % of control | dose: 25.0 mg/kg/injection, schedule: Q01DX001 (ip), vehicle: Klucel (hydroxypropylcellulose) (HPC) 103 % of control and 104 % of control | [23] 98 % of control and 103 % of control and 107 % of control | dose: 25.0 mg/kg/injection, schedule: Q04DX002 (ip), vehicle: Klucel (hydroxypropylcellulose) (HPC) 100 % of control and 112 % of control | dose: 25.0 mg/kg/injection, schedule: Q04DX003 (ip), vehicle: Klucel (hydroxypropylcellulose) (HPC) 110 % of control and 115 % of control | dose: 40.0 mg/kg/injection, schedule: Q01DX009 (ip), vehicle: saline with Tween-80 109 % of control | [15] 104 % of control and 109 % of control (2×) | dose: 75.0 mg/kg/injection, schedule: Q01DX005 (ip), vehicle: Klucel (hydroxypropylcellulose) (HPC) 105 % of control | dose: 80.0 mg/kg/injection, schedule: Q01DX009 (ip), vehicle: saline with Tween-80 111 % of control | [16] 114 % of control and 119 % of control and 97 % of control | dose: 150.0 mg/kg/injection, schedule: Q01DX005 (ip), vehicle: Klucel (hydroxypropylcellulose) (HPC) 105 % of control | dose: 160.0 mg/kg/injection, schedule: Q01DX009 (ip), vehicle: saline with Tween-80 118 % of control | [17] 108 % of control

O=C(O)c1ccc(Cn2ccc(=O)[nH]c2=O)cc1
inactive: [5] 100 % of control | [6] 100 % of control | [7] 100 % of control

CS(=O)(=O)NC(=O)NC(=S)c1ccc(Br)cc1
inactive: [5] 103 % of control | [6] 101 % of control | [7] 107 % of control

O=[N+]([O-])c1ccc(Sc2c3ccccc3nc3ccccc23)nc1
inactive: [18] 108 % of control | [19] 100 % of control | [20] 106 % of control | [21] 100 % of control

Cn1c(=O)[nH]c(N)c(C(=O)CCl)c1=O
inactive: [8] 97 % of control | [9] 105 % of control

Oc1ccccc1CNCc1ccccc1O
inactive: [22] 100 % of control | [23] 100 % of control | [15] 108 % of control | [16] 98 % of control

CC[C@H]1OC(=O)[C@H](C)[C@@H](OC2CC(C)(OC)C(O)C(C)O2)[C@H](C)[C@@H](OC2OC(C)CC(N(C)C)C2OC(=O)CCC2CCCC2)[C@](C)(O)C[C@@H](C)C(=O)[C@H](C)[C@@H](O)[C@]1(C)O (some centres undefined)
inactive: [10] 96 % of control | [11] 100 % of control | dose: 200.0 mg/kg/injection, schedule: Q01DX005 (ip), vehicle: Klucel (hydroxypropylcellulose) (HPC) 93 % of control

CCO/C([O-])=C(\C=N\S(=O)(=O)c1ccc(C)cc1)[n+]1ccc(C)cc1
inactive: [12] 103 % of control | [13] 100 % of control | [14] 101 % of control
